ChEMBL document CHEMBL3608266, “Active Constituents from Drynaria fortunei Rhizomes on the Attenuation of Aβ(25-35)-Induced Axonal Atrophy” (J Nat Prod, 2015)
The source made the active and inactive calls. The rule behind the calls is not given here.

System: Cortical neurone
Assay: Induction of axonal regeneration in mouse cortical neurons assessed as reversal of Abeta (25 to 35)-induced axonal atrophy at 10 uM treated 3 days after Abeta (25 to 35) challenge and measured 4 days post compound dosing by pNF-H and MAP2 immunostaining method
Format: functional

Row | SMILES | Activity
1 | C[C@@H]1O[C@@H](O[C@H]2[C@H](Oc3cc(O)c4c(c3)O[C@H](c3ccc(O)c(O)c3)CC4=O)O[C@H](CO)[C@@H](O)[C@@H]2O)[C@H](O)[C@H](O)[C@H]1O | Active
2 | O=C(O)/C=C/c1ccc(O[C@@H]2O[C@H](CO)[C@@H](O)[C@H](O)[C@H]2O)c(O)c1 | Active
